Reference: PMC8464905, “Novel c-Jun N-Terminal Kinase (JNK) Inhibitors with an 11H-Indeno[1,2-b]quinoxalin-11-one Scaffold” (Molecules, 2021)
Where two headings read alike, the source gives them in different places.

Tests used:
JNK1 [1] = biological target: T1, JNK1 (Homo sapiens, UniProt P45983); conditions: previously identified inhibitors; ref [35],[36]; cited from earlier work
T1 construct: purchased Eurofins Pharma Discovery (KINOMEscan)

JNK2 [2] = biological target: T2, JNK2 (Homo sapiens, UniProt P45984); conditions: previously identified inhibitors; ref [35],[36]; cited from earlier work
T2 construct: purchased Eurofins Pharma Discovery (KINOMEscan)
T2 sequence (P45984 whole entry): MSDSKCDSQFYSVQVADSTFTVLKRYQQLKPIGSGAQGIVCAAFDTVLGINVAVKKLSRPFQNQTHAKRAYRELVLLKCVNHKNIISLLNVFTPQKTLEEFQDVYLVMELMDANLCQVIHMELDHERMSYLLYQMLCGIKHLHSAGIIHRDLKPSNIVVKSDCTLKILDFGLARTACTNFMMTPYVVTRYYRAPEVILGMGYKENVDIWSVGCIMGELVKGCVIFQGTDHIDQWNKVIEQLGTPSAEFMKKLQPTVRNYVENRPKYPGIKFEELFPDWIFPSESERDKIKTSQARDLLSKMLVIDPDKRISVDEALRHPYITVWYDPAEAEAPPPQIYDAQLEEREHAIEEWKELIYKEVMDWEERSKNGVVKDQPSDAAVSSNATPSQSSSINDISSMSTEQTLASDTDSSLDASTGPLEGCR

JNK3 [3] = biological target: T3, JNK3 (Homo sapiens, UniProt P53779); conditions: previously identified inhibitors; ref [35],[36]; cited from earlier work
T3 construct: purchased Eurofins Pharma Discovery (KINOMEscan)
T3 sequence (P53779 whole entry): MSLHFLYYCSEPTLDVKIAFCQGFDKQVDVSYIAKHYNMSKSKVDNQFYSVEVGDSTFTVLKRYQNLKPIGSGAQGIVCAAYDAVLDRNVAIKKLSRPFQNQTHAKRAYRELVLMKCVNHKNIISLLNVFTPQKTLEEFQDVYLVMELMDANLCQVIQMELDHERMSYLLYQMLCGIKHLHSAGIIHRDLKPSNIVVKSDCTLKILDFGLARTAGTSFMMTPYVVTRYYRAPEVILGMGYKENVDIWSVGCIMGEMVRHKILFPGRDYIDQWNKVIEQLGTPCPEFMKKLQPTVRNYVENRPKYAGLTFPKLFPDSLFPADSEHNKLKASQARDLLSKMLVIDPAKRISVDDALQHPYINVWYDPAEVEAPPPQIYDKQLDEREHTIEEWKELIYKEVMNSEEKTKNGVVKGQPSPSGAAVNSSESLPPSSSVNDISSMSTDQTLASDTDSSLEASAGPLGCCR

JNK1 [4] = biological target: T1, JNK1; experiment: KINOMEscan Kd determination, JNK1; conditions: duplicate, mean, N.B. = no binding at < 30 μM
Method: (§1) Selected compounds were submitted for dissociation constant (Kd) determination using KINOMEscan (Eurofins Pharma Discovery, San Diego, CA, USA), as described previously. […] Primary screening at fixed concentrations of compounds was performed in duplicate.

JNK2 [5] = biological target: T2, JNK2; experiment: KINOMEscan Kd determination, JNK2; conditions: duplicate, mean, N.B. = no binding at < 30 μM
Method: as §1

JNK3 [6] = biological target: T3, JNK3; experiment: KINOMEscan Kd determination, JNK3; conditions: duplicate, mean, N.B. = no binding at < 30 μM
Method: as §1

JNK1-3 = experiment: KINOMEscan binding, statements for all three JNK isoforms; conditions: summary of Table 3
Method: as §1

[7] = CellTiter-Glo cytotoxicity in THP-1Blue cells; type: cell-based, human; conditions: human, THP-1Blue cells; 24-h incubation, up to 50 μM; read-out: THP-1Blue Cell Cytotoxicity IC50
Method: (§2) All cells were cultured at 37 °C in a humidified atmosphere containing 5% CO2. THP1-Blue cells obtained from InvivoGen (San Diego, CA, USA) were cultured in RPMI 1640 medium (Mediatech Inc., Herndon, VA, USA) supplemented with 10% (v/v) fetal bovine serum (FBS), 100 μg/mL streptomycin, 100 U/mL penicillin, 100 μg/mL phleomycin (Zeocin), and 10 μg/mL blasticidin S. Human monocyte-macrophage MonoMac-6 cells (Deutsche Sammlung von Mikroorganismen und Zellkulturen GmbH, Braunschweig, Germany) were grown in RPMI 1640 medium supplemented with 10% (v/v) FBS, 10 μg/mL bovine insulin, 100 μg/mL streptomycin, and 100 U/mL penicillin.
(§3) Cytotoxicity was analyzed with a CellTiter-Glo Luminescent Cell Viability Assay Kit from Promega (Madison, WI, USA), according to the manufacturer’s protocol. Cells were treated with compounds under investigation and incubated for 24 h. After treatment, the cells were equilibrated to room temperature for 30 min, substrate was added, and the samples were analyzed with a Fluoroscan Ascent FL (Thermo Fisher Scientific, Waltham, MA, USA). The IC50 values were calculated by plotting percentage inhibition against the logarithm of inhibitor concentration (at least five points).

[8] = CellTiter-Glo cytotoxicity in MonoMac-6 cells; type: cell-based, human; conditions: human, MonoMac-6 cells; 24-h incubation, up to 50 μM; read-out: MonoMac-6 Cell Cytotoxicity IC50
Method: as §2, §3

NF-κB/AP-1 = experiment: LPS-induced NF-κB/AP-1 alkaline phosphatase reporter assay in THP1-Blue cells; type: cell-based; conditions: Homo sapiens; 30 min pretreatment, 250 ng/mL LPS for 24 h; read-out: THP-1Blue Cell NF-κB/AP-1 IC50
Method: as §2
Activation of AP-1/NF-κB was measured using an alkaline phosphatase reporter gene assay in THP1-Blue cells. Human monocytic THP-1 Blue cells are stably transfected with a secreted embryonic alkaline phosphatase gene that is under the control of a promoter inducible by NF-κB/AP-1. THP1-Blue cells (2 × 10^5 cells/well) were pretreated with test compound or DMSO for 30 min, followed by addition of 250 ng/mL lipopolysaccharide (LPS) for 24 h, and alkaline phosphatase activity was measured in cell supernatants using QUANTI-Blue mix (InvivoGen) as absorbance at 655 nm and compared with positive control samples (LPS). For selected compounds, the concentrations of inhibitor that caused 50% inhibition of the NF-κB reporter activity (IC50) were calculated.

IL-6 = experiment: LPS-induced IL-6 production in MonoMac-6 cells (ELISA); type: cell-based; conditions: Homo sapiens, MONO-MAC-6; 30 min pretreatment, 250 ng/mL LPS for 24 h; read-out: MonoMac-6 Cell IL-6 IC50
Method: as §2
A human IL-6 ELISA kit (BD Biosciences, San Jose, CA, USA) was measure IL-6 production. MonoMac-6 cells were plated in 96-well plates at a density of 2 × 10^5 cells/well in culture medium supplemented with 3% (v/v) endotoxin-free FBS. The cells were pretreated with test compound or DMSO for 30 min, followed by addition of 250 ng/mL LPS for 24 h. IC50 values for IL-6 production were calculated by plotting percentage inhibition against the logarithm of inhibitor concentration (at least five points).

THP-1Blue cells = experiment: CellTiter-Glo cytotoxicity in THP-1Blue cells; type: cell-based, human; conditions: 24-h incubation, up to 50 μM
Method: as §2, §3

MonoMac-6 cells = experiment: CellTiter-Glo cytotoxicity in MonoMac-6 cells; type: cell-based, human; conditions: 24-h incubation, up to 50 μM
Method: as §2, §3

phospho-c-Jun (Ser63) = experiment: LPS-induced c-Jun (Ser63) phosphorylation in MonoMac-6 cells (Western blotting); type: cell-based, human; conditions: 30 min pretreatment, LPS 250 ng/mL 30 min
Method: MonoMac-6 monocytic cells were pretreated with different concentrations of the compounds under investigation for 30 min and treated with LPS (250 ng/mL) or vehicle for another 30 min. Cells were washed twice with Hanks’ balanced salt solution, and cell lysates were prepared using lysis buffer from the JNK kinase assay kit (Cell Signaling Technology, Danvers, MA). Cell lysates (from 5 × 10^6 cells) were separated on ExpressPlus 4–20% PAGE Gels (GenScript, Piscataway, NJ, USA) using TRIS-MOPS running buffer (GenScript) and transferred to nitrocellulose membranes. The blots were probed with antibodies against c-Jun, phospho-c-Jun (Ser63), and total c-Jun (Cell Signaling Technology, Danvers, MA, USA), followed by horseradish peroxidase-conjugated secondary antibody (Cell Signaling Technology). The blots were developed using SuperSignal West Femto chemiluminescent substrate (Thermo Fisher Scientific) and visualized with a FluorChem FC2 imaging system (Alpha Innotech Corporation, San Leandro, CA, USA). Quantitation of the chemiluminescent signal was performed using AlphaView software (ver. 3.0; Alpha Innotech).

T1 sequence (P45983 whole entry): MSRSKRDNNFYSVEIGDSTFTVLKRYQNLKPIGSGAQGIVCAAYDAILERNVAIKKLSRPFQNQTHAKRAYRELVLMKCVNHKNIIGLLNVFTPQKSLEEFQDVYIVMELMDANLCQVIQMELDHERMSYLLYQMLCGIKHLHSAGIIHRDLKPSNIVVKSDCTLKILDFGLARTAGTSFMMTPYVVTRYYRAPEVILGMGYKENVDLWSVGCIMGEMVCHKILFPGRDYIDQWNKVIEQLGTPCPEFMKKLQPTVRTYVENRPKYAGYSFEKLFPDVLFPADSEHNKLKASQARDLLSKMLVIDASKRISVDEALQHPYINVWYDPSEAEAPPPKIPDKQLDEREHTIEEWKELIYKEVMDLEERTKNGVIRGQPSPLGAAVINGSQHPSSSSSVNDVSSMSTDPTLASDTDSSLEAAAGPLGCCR

Row | Kd (JNK1 [4]) | Kd (JNK2 [5]) | Kd (JNK3 [6]) | Binding affinity (Kd) for all three JNK isoforms, in words (JNK1-3) | IC50 (NF-κB/AP-1) | IC50 (IL-6) | melting point | JNK2 Kd (JNK2 [5]) | SMILES | Kd (JNK1 [1]) | Kd (JNK2 [2]) | Kd (JNK3 [3]) | IC50 at 24 h [7] | IC50 at 24 h [8] | THP-1Blue Cell Cytotoxicity IC50 (THP-1Blue cells) | MonoMac-6 Cell Cytotoxicity IC50 (MonoMac-6 cells) | Effect on LPS-induced c-Jun (Ser63) phosphorylation (phospho-c-Jun (Ser63))
1 |  |  |  |  |  |  |  |  | O=[N+]([O-])c1ccc2nc3c(nc2c1)-c1ccccc1/C3=N/O [B] | 6 µM | 12 µM | 4.3 µM |  |  |  |  | 
2 |  |  |  |  |  |  |  |  | O/N=C1/c2ccccc2-c2nc3ccc(Cl)cc3nc21 [C] | 1.1 µM | 21.5 µM | 0.7 µM |  |  |  |  | 
3 | 0.28 ± 0.07 µM | 0.62 ± 0.01 µM | 0.19 ± 0.01 µM | submicromolar | 0.3 ± 0.1 µM | 3 ± 0.6 µM | 250 to 251 °C |  | ON=C1c2ccccc2-c2nc3cc(F)ccc3nc21 [Compound 4a, 7-Fluoro-11H-indeno[1,2-b]quinoxalin-11-one Oxime] |  |  |  | > 50 µM | > 50 µM |  |  | 
4 | 0.17 ± 0.04 µM | 0.22 ± 0.06 µM | 0.14 ± 0.03 µM | submicromolar | 0.9 ± 0.3 µM | 1.2 ± 0.4 µM | 270 to 271 °C |  | ON=C1c2ccccc2-c2nc3c(Cl)cccc3nc21 [Compound 4b, 6-Chloro-11H-indeno[1,2-b]quinoxalin-11-one Oxime] |  |  |  | > 50 µM | > 50 µM |  |  | 
5 | > 30 µM | > 30 µM | > 30 µM | inactive |  |  | 255 to 256 °C |  | Cc1cc(Br)cc2nc3c(nc12)-c1ccccc1C3=NO [Compound 4c, 6-Methyl-8-bromo-11H-indeno[1,2-b]quinoxalin-11-one Oxime] |  |  |  | 37.5 ± 1.7 µM | 14.6 ± 1.2 µM | exhibited cytotoxicity | cytotoxic | 
6 | 3.1 ± 0.1 µM | 1.6 ± 0.6 µM | 3.1 ± 0.2 µM | relatively low affinity | 0.4 ± 0.1 µM | 1 ± 0.2 µM | 197 to 198 °C |  | CC(C)(C)c1ccc2nc3c(nc2c1)-c1ccccc1/C3=N/O [Compound 4d, (11Z/E)-7-tert-Butyl-11H-indeno[1,2-b]quinoxalin-11-one Oxime] |  |  |  | > 50 µM | > 50 µM |  |  | 
7 | 0.92 ± 0.05 µM | 1.6 ± 0.01 µM | 0.9 ± 0.3 µM | submicromolar | 0.4 ± 0.1 µM | 2.2 ± 0.2 µM | 255 to 256 °C |  | ON=C1c2ccccc2-c2nc3c(F)cc(F)cc3nc21 [Compound 4e, 6,8-Difluoro-11H-indeno[1,2-b]quinoxalin-11-one Oxime] |  |  |  | > 50 µM | > 50 µM |  |  | 
8 | 0.17 ± 0.04 µM | > 30 µM | 0.52 ± 0.3 µM |  | 1.1 ± 0.4 µM | 14 ± 2.8 µM | 250 to 251 °C | did not bind | ON=C1c2ccccc2-c2nc3cc(F)c(F)cc3nc21 [Compound 4f, 7,8-Difluoro-11H-indeno[1,2-b]quinoxalin-11-one Oxime] |  |  |  | > 50 µM | > 50 µM |  |  | inhibited c-Jun phosphorylation
9 | 0.52 ± 0.09 µM | 0.91 ± 0.06 µM | 1.1 ± 0.1 µM |  | 2.1 ± 0.4 µM |  | 257 to 258 °C |  | ON=C1c2ccccc2-c2nc3c(F)c(F)ccc3nc21 [Compound 4g, 6,7-Difluoro-11H-indeno[1,2-b]quinoxalin-11-one Oxime] |  |  |  | > 50 µM | 32 ± 2.2 µM |  | cytotoxic | 
10 | > 30 µM | > 30 µM | > 30 µM | inactive | 2.5 ± 0.6 µM |  | 236 to 237 °C |  | ON=C1c2ccccc2-c2nc3c(Br)cc(C(F)(F)F)cc3nc21 [Compound 4h, 6-Bromo-8-(trifluoromethyl)-11H-indeno[1,2-b]quinoxalin-11-one Oxime] |  |  |  | > 50 µM | 29 ± 2.5 µM |  | cytotoxic | 
11 | > 30 µM | > 30 µM | > 30 µM | inactive | 2.9 ± 0.9 µM | 6.2 ± 0.2 µM | 324 to 325 °C |  | O/N=C1/c2ccccc2-c2nc3c(Cl)cc(C(F)(F)F)cc3nc21 [Compound 4i, (11Z/E)-6-Chloro-8-(trifluoromethyl)-11H-indeno[1,2-b]quinoxalin-11-one Oxime] |  |  |  | > 50 µM | > 50 µM |  |  | 
12 | > 30 µM | > 30 µM | > 30 µM | inactive |  | 4.8 ± 0.5 µM | 253 to 254 °C |  | ON=C1c2ccccc2-c2nc3c(C(F)(F)F)cc(C(F)(F)F)cc3nc21 [Compound 4j, 6,8-bis(Trifluoromethyl)-11H-indeno[1,2-b]quinoxalin-11-one oxime] |  |  |  | 36.5 ± 1.9 µM | > 50 µM | exhibited cytotoxicity |  | 
13 | > 30 µM | > 30 µM | 24.5 ± 2.1 µM |  | 0.6 ± 0.2 µM | 2.3 ± 0.4 µM | 276 to 277 °C |  | ON=C1c2ccccc2-c2nc3cc(F)c(Cl)cc3nc21 [Compound 4k, 8-Chloro-7-fluoro-11H-indeno[1,2-b]quinoxalin-11-one Oxime] |  |  |  | > 50 µM | > 50 µM |  |  | 
14 | 0.91 ± 0.16 µM | 2.4 ± 0.2 µM | 0.71 ± 0.05 µM | submicromolar |  | > 50 µM | 300 to 301 °C |  | COC(=O)c1ccc2nc3c(nc2c1)C(=NO)c1ccccc1-3 [Compound 4l, Methyl-11-(hydroxyimino)-11H-indeno[1,2-b]quinoxaline-8-carboxylate] |  |  |  | 26.1 ± 5.3 µM | > 50 µM | exhibited cytotoxicity |  | 
15 |  |  |  |  |  |  |  |  | Cc1ccc2nc3c(nc2c1)-c1ccccc1/C3=N/O [D] | 0.7 µM | 0.8 µM | 0.3 µM |  |  |  |  | 
